Test results reported in patent publication US8722937B2 (priority 2006, dated 2014).
Values after ≈ are worked out from the molar mass of the structure shown. Where two headings read alike, the source gives them in different places. Marks after values point to notes of the source that are not given here.

Columns and labels:
B. anthracis = conditions: cited from earlier work
[1] = molecular target: T1, FabH derived from E. coli (ecFabH) (Escherichia coli, UniProt P0A6R0); test: FabH enzyme assay (coupled trichloroacetic acid precipitation assay), ecFabH; format: biochemical; conditions: for IC50: 15 min preincubation at 23° C., duplicate assays, read-out: IC50 against ecFabH; for inhibition at 5 µM: 5 μM of test compound, read-out: Percent inhibition of FabH derived from E. coli, ecFabH (%)
T1 construct: polyhistidine (N); made in house; host or cells: E. coli
T1 sequence (P0A6R0 1-317): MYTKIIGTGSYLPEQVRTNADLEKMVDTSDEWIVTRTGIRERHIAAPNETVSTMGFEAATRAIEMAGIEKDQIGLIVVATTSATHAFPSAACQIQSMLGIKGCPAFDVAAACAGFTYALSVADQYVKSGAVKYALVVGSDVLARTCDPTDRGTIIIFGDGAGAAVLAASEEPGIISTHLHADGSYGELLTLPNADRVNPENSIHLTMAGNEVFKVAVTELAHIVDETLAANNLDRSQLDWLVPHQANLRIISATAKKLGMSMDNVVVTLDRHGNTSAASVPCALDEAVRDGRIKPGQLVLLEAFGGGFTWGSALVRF

[2] = molecular target: FabH derived from M. tuberculosis (mtFabH) (Mycobacterium tuberculosis, UniProt P9WNG3); conditions: for IC50: read-out: IC50 against mtFabH
Chain of FabH derived from M. tuberculosis (mtFabH) (P9WNG3 whole entry): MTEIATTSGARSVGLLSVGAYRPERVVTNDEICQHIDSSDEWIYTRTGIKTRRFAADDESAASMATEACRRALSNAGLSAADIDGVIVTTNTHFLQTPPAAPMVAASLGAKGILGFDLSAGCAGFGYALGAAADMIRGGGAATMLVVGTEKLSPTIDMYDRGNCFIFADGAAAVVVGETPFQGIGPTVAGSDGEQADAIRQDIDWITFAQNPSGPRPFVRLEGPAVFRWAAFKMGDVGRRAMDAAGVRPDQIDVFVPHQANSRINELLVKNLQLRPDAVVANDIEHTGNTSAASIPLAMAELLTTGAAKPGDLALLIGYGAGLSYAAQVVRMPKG

S. aureus (ATCC 25923) [3] = conditions: MSSA ATCC 25923; data taken from ref. 6; cited from earlier work
MRSA (ATCC 43300) [4] = conditions: cited from earlier work
[5] = tested on: methicillin-resistant S. aureus (MRSA); conditions: MRSA ATCC 43300; data taken from ref. 6; cited from earlier work
S. aureus (ATCC 25923) [6] = conditions: MSSA ATCC 25923; data from ref. 6 (PenG, 2g) or ref. 52 (vancomycin); cited from earlier work
[7] = tested on: methicillin-resistant S. aureus (MRSA); test: microbe, parasite or virus in culture; format: cell-based, Staphylococcus aureus; conditions: for Zones of growth inhibition, MRSA / zone of inhibition at 20 µg/disc: 24 h, 37° C.; for zone of inhibition at 20 µg/disc: Staphylococcus aureus, MRSA, read-out: Average zones of growth inhibition of MRSA (USF-652-659, 919-920)
S. aureus (ATCC 25923) [8] = test: microbe, parasite or virus in culture; format: cell-based, Staphylococcus aureus; conditions: for Zones of growth inhibition, S. aureus / zone of inhibition at 20 µg/disc: 24 h, 37° C.; for zone of inhibition at 20 µg/disc: Staphylococcus aureus, ATCC25923
MRSA (ATCC 43300) [9] = test: Minimum inhibitory concentration (MIC), MRSA; format: cell-based, Staphylococcus aureus
S. aureus (ATCC 25923) [10] = test: Agar dilution minimum inhibitory concentration (MIC), S. aureus; format: cell-based, Staphylococcus aureus; conditions: for MIC: Staphylococcus aureus
M. tuberculosis = conditions: reported by Jones et al.; cited from earlier work
[11] = tested on: E. coli (K12; ATCC 23590); test: Kirby-Bauer zones of inhibition, E. coli; format: cell-based, Escherichia coli; conditions: K12 strain, ATCC 23590; for Zone of Inhibition (mm), E. coli, zones of partial inhibition: number in parentheses; for Zone of Inhibition (mm), E. coli: number outside parentheses
[12] = tested on: E. coli (K12; ATCC 23590); test: Minimum inhibitory concentration (MIC), E. coli; format: cell-based; conditions: Escherichia coli, ATCC23590, read-out: MIC (μg/mL) against E. coli
B. anthracis (USF 848) [13] = test: microbe, parasite or virus in culture; format: cell-based, Bacillus anthracis; conditions: Bacillus anthracis, 24 h, 37° C.
B. anthracis (USF 848) [14] = test: microbe, parasite or virus in culture; format: cell-based, Bacillus anthracis; conditions: Bacillus anthracis, read-out: Minimum inhibitory concentration (MIC) against B. anthracis (USF 848)
[15] = MRSA ATCC 43300, data taken from ref. 6
[16] = read-out: Zones of growth inhibition of B. anthracis (USF 848)
[17] = read-out: Zones of growth inhibition of B. anthracis (USF 848), areas of partial growth inhibition
[18] = read-out: Zones of growth inhibition of S. aureus (ATCC 25923)
[19] = read-out: Zones of growth inhibition of S. aureus (ATCC 25923), areas of partial inhibition
[20] = ATCC25923, serial dilution in 24-well plate, NCCLS, read-out: Minimum inhibitory concentration (MIC) against S. aureus (ATCC 25923)
[21] = ATCC 25923 / MSSA, read-out: MIC (MSSA)

Structure (SMILES) | Zone of Inhibition (mm), E. coli, zones of partial inhibition [11] | MIC [12] [µg/mL] | zone of inhibition at 20 µg/disc (B. anthracis (USF 848) [13]; [16]) [mm] | inhibition at 5 µM [1] [%] | zone of inhibition at 20 µg/disc [7] [mm] | zone of inhibition at 20 µg/disc (S. aureus (ATCC 25923) [8]; [18]) [mm] | zone of inhibition at 20 µg/disc (S. aureus (ATCC 25923) [8]; [19]) [mm] | MIC (B. anthracis (USF 848) [14]) [µg/mL] | MIC (S. aureus (ATCC 25923) [10]; [20]) [µg/mL] | also measured
O=C(O)c1cn(C2CC2)c2cc(N3CCNCC3)c(F)cc2c1=O [Ciprofloxacin] | – | – | – | – | – | – | – | – | – | reported value for Ciprofloxacin (for 50% growth inhibition) (B. anthracis): 0.094
CCC(C)SN1C(=O)C(OC)C1c1ccccc1Cl (centres unmarked) [Compound 2g] | – | – | – | – | – | – | – | – | – | Percent inhibition of ecFabH ([1]; 1 μM of test compound): 30%; Percent inhibition of mtFabH ([2]; 10 µM): 4%; Zone (MSSA) (S. aureus (ATCC 25923) [3]): 32^c mm; MIC (MRSA) (MRSA (ATCC 43300) [4]; [15]): 0.25 µg/mL (≈ 0.834 µM); Zone (MRSA) [5]: 34 mm; MIC (MSSA) (S. aureus (ATCC 25923) [6]): 0.25 µg/mL (≈ 0.834 µM)
CSN1C(=O)OCC1c1ccccc1 (centres unmarked) [Compound 13, reference compound] | – | – | – | – | – | – | – | – | – | Zone (MRSA) [7]: 28 mm; Zone (MSSA) (S. aureus (ATCC 25923) [8]): 29 mm; MIC (MRSA) (MRSA (ATCC 43300) [9]): 8 µg/mL (≈ 38.2 µM); MIC (MSSA) (S. aureus (ATCC 25923) [10]; MSSA ATCC 25923): 4 µg/mL (≈ 19.1 µM)
CSSCCNC(=O)CCNC(=O)[C@H](O)C(C)(C)COP(=O)(O)OP(=O)(O)OC[C@H]1O[C@@H](n2cnc3c(N)ncnc32)[C@H](O)[C@@H]1OP(=O)(O)O [Compound 25a] | – | – | – | – | – | – | – | – | – | IC50 [1]: 57.1 ± 4.48 µM; Zones of growth inhibition, MRSA [7]: 0 mm; IC50 [2]: > 300 µM; Zones of growth inhibition, S. aureus (S. aureus (ATCC 25923) [8]): 0 mm
CCC(C)SSCCNC(=O)CCNC(=O)[C@H](O)C(C)(C)COP(=O)(O)OP(=O)(O)OC[C@H]1O[C@@H](n2cnc3c(N)ncnc32)[C@H](O)[C@@H]1OP(=O)(O)O (some centres unmarked) [Compound 25c] | – | – | – | – | – | – | – | – | – | IC50 [1]: > 300 µM; Zones of growth inhibition, MRSA [7]: 0 mm; IC50 [2]: > 300 µM; Zones of growth inhibition, S. aureus (S. aureus (ATCC 25923) [8]): 0 mm
CCCCSSCCNC(=O)CCNC(=O)[C@H](O)C(C)(C)COP(=O)(O)OP(=O)(O)OC[C@H]1O[C@@H](n2cnc3c(N)ncnc32)[C@H](O)[C@@H]1OP(=O)(O)O [Compound 25d] | – | – | – | – | – | – | – | – | – | IC50 [1]: > 300 µM; IC50 [2]: > 300 µM
CCCCCCCCSSCCNC(=O)CCNC(=O)[C@H](O)C(C)(C)COP(=O)(O)OP(=O)(O)OC[C@H]1O[C@@H](n2cnc3c(N)ncnc32)[C@H](O)[C@@H]1OP(=O)(O)O [Compound 25e] | – | – | – | – | – | – | – | – | – | IC50 [1]: > 300 µM; IC50 [2]: 23.2 ± 4.6 µM
CCCCCCCCCCSSCCNC(=O)CCNC(=O)[C@H](O)C(C)(C)COP(=O)(O)OP(=O)(O)OC[C@H]1O[C@@H](n2cnc3c(N)ncnc32)[C@H](O)[C@@H]1OP(=O)(O)O [Compound 25f] | – | – | – | – | – | – | – | – | – | IC50 [1]: > 300 µM; IC50 [2]: 2.6 ± 1.6 µM
CC(C)CCCCCCCS(=O)(=O)CC(N)=O [Compound 30] | – | – | – | – | – | – | – | – | – | activity against M. tuberculosis, in words (M. tuberculosis): good activity
CSSc1ccc([N+](=O)[O-])cc1 [Compound 38a, p-Nitrophenyl Methyl Disulfide] | 24 mm | 16 (≈ 79.5 µM) | 47 | 94 | 23 | 30 | 35 | 0.25 (≈ 1.24 µM) | 16 (≈ 79.5 µM) | melting point: 29 to 32 °C; Zone of Inhibition (mm), E. coli [11]: 17 mm; zone of inhibition at 20 µg/disc (B. anthracis (USF 848) [13]; [17]): 54 mm
CCSSc1ccc([N+](=O)[O-])cc1 [Compound 38b, Ethyl p-nitrophenyl Disulfide] | 23 mm | 16 (≈ 74.3 µM) | 56 | 98 | 38 | 47 | 54 | 0.25 (≈ 1.16 µM) | 32 (≈ 149 µM) | Zone of Inhibition (mm), E. coli [11]: 15 mm; zone of inhibition at 20 µg/disc (B. anthracis (USF 848) [13]; [17]): 67 mm
CC(C)SSc1ccc([N+](=O)[O-])cc1 [Compound 38c, Isopropyl p-nitrophenyl disulfide] | (11) mm | 96 (≈ 419 µM) | 71 | 98.5 | 75 | 68 | 85 | < 0.125 | 0.4 (≈ 1.74 µM) | Zone (MRSA) [7]: 70 mm; Zone (MSSA) (S. aureus (ATCC 25923) [8]): 47 mm; MIC (S. aureus (ATCC 25923) [10]; [21]): 0.8 µg/mL (≈ 3.49 µM)
CCC(C)SSc1ccc([N+](=O)[O-])cc1 (centres unmarked) [Compound 38d, Sec-Butyl p-nitrophenyl Disulfide] | (10) mm | 128 (≈ 526 µM) | 56 | 96 | 54 | 47 | 68 | < 0.125 | 0.8 (≈ 3.29 µM) | zone of inhibition at 20 µg/disc (B. anthracis (USF 848) [13]; [17]): 62 mm; Zone (MRSA) [7]: 54 mm; Zone (MSSA) (S. aureus (ATCC 25923) [8]): 67 mm; MIC (S. aureus (ATCC 25923) [10]; [21]): 0.4 µg/mL (≈ 1.64 µM)
CCCSSc1ccc([N+](=O)[O-])cc1 [Compound 38e, p-Nitrophenyl n-propyl Disulfide] | 21 mm | 64 (≈ 279 µM) | 49 | 91 | 38 | 36 | 43 | 1 (≈ 4.36 µM) | 24 (≈ 105 µM) | Zone of Inhibition (mm), E. coli [11]: 16 mm; zone of inhibition at 20 µg/disc (B. anthracis (USF 848) [13]; [17]): 57 mm
CCCCSSc1ccc([N+](=O)[O-])cc1 [Compound 38f, n-Butyl p-nitrophenyl Disulfide] | 22 mm | 96 (≈ 394 µM) | 44 | 93 | 28 | 41 | 53 | 1 (≈ 4.11 µM) | 32 (≈ 131 µM) | Zone of Inhibition (mm), E. coli [11]: 15 mm; zone of inhibition at 20 µg/disc (B. anthracis (USF 848) [13]; [17]): 52 mm
CC1(C)S[C@@H]2[C@H](NC(=O)Cc3ccccc3)C(=O)N2[C@H]1C(=O)O [PenG., penicillin G, reference compound] | – | – | – | – | – | – | – | – | – | Zone (MSSA) (S. aureus (ATCC 25923) [3]): 33 mm; MIC (MRSA) (MRSA (ATCC 43300) [4]; [15]): 64 µg/mL (≈ 191 µM); Zone (MRSA) [5]: 14 mm; MIC (MSSA) (S. aureus (ATCC 25923) [6]): 0.03 µg/mL (≈ 0.0897 µM)
CN[C@H](CC(C)C)C(=O)N[C@H]1C(=O)N[C@@H](CC(N)=O)C(=O)N[C@H]2C(=O)N[C@H]3C(=O)N[C@H](C(=O)N[C@H](C(=O)O)c4cc(O)cc(O)c4-c4cc3ccc4O)[C@H](O)c3ccc(c(Cl)c3)Oc3cc2cc(c3O[C@@H]2O[C@H](CO)[C@@H](O)[C@H](O)[C@H]2O[C@H]2C[C@](C)(N)[C@H](O)[C@H](C)O2)Oc2ccc(cc2Cl)[C@H]1O [Vanc., Vancomycin, reference compound] | – | – | – | – | – | – | – | – | – | Zone (MRSA) [7]: 22 mm; Zone (MSSA) (S. aureus (ATCC 25923) [8]): 27 mm; MIC (MRSA) (MRSA (ATCC 43300) [4]; MRSA 67, as reported by ref. 52): 0.39^d μg/mL; MIC (MSSA) (S. aureus (ATCC 25923) [6]): 0.78^d μg/mL
